Where two headings read alike, the source gives them in different places. Marks after values point to notes of the source that are not given here.
Key:
[1] = biological target: Recombinant full length human OGA enzyme (Homo sapiens (Human), UniProt O60502); test: OGA Enzyme Inhibition Biochemical Assay; conditions: 1 nM OGA, 100 μM 4-MUGlcNAc, pH 6.4
Procedure, shortened: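 Full-length recombinant human OGA with fluorogenic 4-MUGlcNAc in McIlvaine buffer pH 6.4, 0.01% BSA; 90 min at room temperature, glycine pH 10 quench, fluorescence Ex 355/Em 460 nm. 10-point, 4-fold dilution from 20 μM; 4-parameter variable-slope fit.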

[2] = biological target: OGA (S400 O-GLCNAC), HEK-293T cells transfected with Tau-V5 (Homo sapiens (Human), UniProt O60502); test: Cellular OGA-Tau MSD Assay; assay type: cell-based; conditions: HEK-293T cells, Tau-S400-GlcNAc MSD readout
Procedure, shortened: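 HEK-293T cells transfected with OGA and Tau-V5 plasmids were treated overnight at 37° C with a 10-point, 3-fold titration from 1 uM. Lysates went onto V5-antibody MSD plates to capture Tau, probed with a Tau O-GlcNAc antibody and read by electrochemiluminescence; IC50 from a 4-parameter fit.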

P-gp (MDR1) = test: MDR1-MDCK Efflux Ratio Assay; assay type: in vitro ADME; conditions: dog, read-out: MDR1-MDCK Efflux Ratio (B-A/A-B)
Procedure, shortened: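 Bidirectional (apical↔basolateral) transport across confluent MDR1-MDCK monolayers in HBSS/10 mM HEPES pH 7.4, receiver buffer with 1% BSA; 2 hr at 37° C, 5% CO2. Donor sampled at 0 and 120 min, receiver at 120 min, quantified by LC-MS/MS in triplicate. Papp, efflux ratio and percent recovery calculated.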

[3] = Rat Liver Microsome Stability Assay; assay type: in vitro ADME
[4] = MDCK-MDR1, pH 7.4, MDR1-MDCK cells, 2 hr, pH 7.4
[5] = rat liver microsomes, 1 uM compound
[6] = MDCK-MDR1, pH 7.4, repeated assay, value marked with asterisk (*)

Sequence of Recombinant full length human OGA enzyme (O60502 whole entry): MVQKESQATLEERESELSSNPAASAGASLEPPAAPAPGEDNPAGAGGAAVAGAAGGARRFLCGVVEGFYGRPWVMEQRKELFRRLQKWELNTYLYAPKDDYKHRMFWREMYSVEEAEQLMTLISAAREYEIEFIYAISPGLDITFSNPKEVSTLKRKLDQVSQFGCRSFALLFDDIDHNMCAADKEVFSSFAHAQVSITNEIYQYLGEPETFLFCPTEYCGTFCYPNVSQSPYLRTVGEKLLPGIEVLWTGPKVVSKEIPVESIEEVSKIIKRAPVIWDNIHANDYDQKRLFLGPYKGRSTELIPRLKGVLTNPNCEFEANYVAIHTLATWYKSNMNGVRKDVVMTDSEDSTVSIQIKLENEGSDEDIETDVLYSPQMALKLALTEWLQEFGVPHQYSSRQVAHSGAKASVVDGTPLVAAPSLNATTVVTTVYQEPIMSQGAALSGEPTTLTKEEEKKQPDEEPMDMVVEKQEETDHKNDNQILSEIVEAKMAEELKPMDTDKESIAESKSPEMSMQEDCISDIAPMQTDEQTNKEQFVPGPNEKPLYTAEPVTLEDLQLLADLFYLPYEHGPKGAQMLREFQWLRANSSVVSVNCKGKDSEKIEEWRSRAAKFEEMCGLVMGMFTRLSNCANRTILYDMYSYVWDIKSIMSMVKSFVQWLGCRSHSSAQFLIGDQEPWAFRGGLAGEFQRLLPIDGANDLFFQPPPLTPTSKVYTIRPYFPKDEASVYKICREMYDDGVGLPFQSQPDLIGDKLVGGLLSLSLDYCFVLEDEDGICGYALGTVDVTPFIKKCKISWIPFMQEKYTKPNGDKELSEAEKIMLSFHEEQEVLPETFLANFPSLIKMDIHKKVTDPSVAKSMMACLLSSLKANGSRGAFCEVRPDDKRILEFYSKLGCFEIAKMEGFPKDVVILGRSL
Sequence of OGA (S400 O-GLCNAC), HEK-293T cells transfected with Tau-V5 (O60502 whole entry): as above

IC50 [1] | IC50 [2] | efflux ratio at 2 h (P-gp (MDR1); [4]) | RLM % Qh (%) [3, 5] | RLM % Qh (%) ([3]; repeated assay, value marked with asterisk (*)) | efflux ratio at 2 h (P-gp (MDR1); [6]) | SMILES
< 1 nM | 1 nM | 9.7 | 50% | 51* % | – | CC(=O)Nc1ncc(CN2C[C@H](Oc3ccc(C#N)cn3)C[C@@H]2C)s1 [Example 1-16, N-(5-(((2S,4R)-4-((5-cyanopyridin-2-yl)oxy)-2-methylpyrrolidin-1-yl)methyl)thiazol-2-yl)acetamide]
< 1 nM | 1 nM | 4.7 | 98% | – | – | COc1cncc(O[C@@H]2C[C@H](C)N(Cc3sc(NC(C)=O)nc3F)C2)n1 [Example 1-88, N-(4-fluoro-5-(((2S,4R)-4-((6-methoxypyrazin-2-yl)oxy)-2-methylpyrrolidin-1-yl)methyl)thiazol-2-yl)acetamide]
< 1 nM | 1 nM | 17.8 | 58% | – | – | CC(=O)Nc1ncc(CN2C[C@H](Oc3cc(N(C)C)ncn3)C[C@@H]2C)s1 [Example 1-131, N-(5-(((2S,4R)-4-((6-(dimethylamino)pyrimidin-4-yl)oxy)-2-methylpyrrolidin-1-yl)methyl)thiazol-2-yl)acetamide]
520 nM | > 1000 nM | 28.5 | 16% | – | – | CC(=O)Nc1ncc(CN2CC[C@H](Oc3cc(C)nc(C)c3)C2)s1 [Example 1-58, (S)—N-(5-((3-((2,6-dimethylpyridin-4-yl)oxy)pyrrolidin-1-yl)methyl)thiazol-2-yl)acetamide]
< 1 nM | 3 nM | 3.7 | 52% | – | – | CC(=O)Nc1nc(F)c(CN2C[C@H](Oc3ccnc(F)c3)C[C@@H]2C)s1 [Example 1-97, N-(4-fluoro-5-(((2S,4R)-4-((2-fluoropyridin-4-yl)oxy)-2-methylpyrrolidin-1-yl)methyl)thiazol-2-yl)acetamide]
720 nM | > 1000 nM | 5.3 | 20% | – | – | COc1cc(O[C@H]2C[C@@H](C)N(Cc3cnc(NC(C)=O)s3)C2)ncn1 [Example 1-40, N-(5-(((2R,4S)-4-((6-methoxypyrimidin-4-yl)oxy)-2-methylpyrrolidin-1-yl)methyl)thiazol-2-yl)acetamide]
< 1 nM | 3 nM | 30.3 | 37% | – | – | CC(=O)Nc1ncc(CN2C[C@H](Oc3cc(N4CCOCC4)ncn3)C[C@@H]2C)s1 [Example 1-130, N-(5-(((2S,4R)-2-methyl-4-((6-morpholinopyrimidin-4-yl)oxy)pyrrolidin-1-yl)methyl)thiazol-2-yl)acetamide]
< 1 nM | 2 nM | 2.2 | 95% | – | – | CC(=O)Nc1ncc(CN2C[C@H](Oc3ccc(F)c(C)n3)C[C@@H]2C)s1 [Example 1-15, N-(5-(((2S,4R)-4-((5-fluoro-6-methylpyridin-2-yl)oxy)-2-methylpyrrolidin-1-yl)methyl)thiazol-2-yl)acetamide]
28 nM | 115 nM | 1.9 | 76% | – | – | CC(=O)Nc1ncc(CN2C[C@H](Oc3ccc(F)cn3)C[C@H]2C)s1 [Example 1-10, N-(5-(((2R,4R)-4-((5-fluoropyridin-2-yl)oxy)-2-methylpyrrolidin-1-yl)methyl)thiazol-2-yl)acetamide]
< 1 nM | 1 nM | 26.3 | 48% | – | – | CC(=O)Nc1ncc(CN2C[C@H](Oc3cc(C)nc(C)n3)C[C@@H]2C)s1 [Example 1-128, N-(5-(((2S,4R)-4-((2,6-dimethylpyrimidin-4-yl)oxy)-2-methylpyrrolidin-1-yl)methyl)thiazol-2-yl)acetamide]
< 1 nM | 1 nM | 3.6 | 72% | – | – | CC(=O)Nc1nc(F)c(CN2C[C@H](Oc3ncc(Cl)cn3)C[C@@H]2C)s1 [Example 1-95, N-(5-(((2S,4R)-4-((5-chloropyrimidin-2-yl)oxy)-2-methylpyrrolidin-1-yl)methyl)-4-fluorothiazol-2-yl)acetamide]
< 1 nM | 8 nM | 12.7 | 16% | – | – | CC(=O)Nc1nc(F)c(CN2C[C@H](Oc3cc(O)ncn3)C[C@@H]2C)s1 [Example 1-109, N-(4-fluoro-5-(((2S,4R)-4-((6-hydroxypyrimidin-4-yl)oxy)-2-methylpyrrolidin-1-yl)methyl)thiazol-2-yl)acetamide]
< 1 nM | 2 nM | 12 | 88% | – | 12.4 | CC(=O)Nc1ncc(CN2C[C@H](Oc3cnc(Cl)cc3C)C[C@@H]2C)s1 [Example 1-17, N-(5-(((2S,4R)-4-((6-chloro-4-methylpyridin-3-yl)oxy)-2-methylpyrrolidin-1-yl)methyl)thiazol-2-yl)acetamide]
2.6 nM | 25 nM | 6 | 65% | – | – | CC(=O)Nc1ncc(CN2C[C@H](Oc3cc(C(C)=O)ncn3)C[C@@H]2C)s1 [Example 1-76]
< 1 nM | < 1 nM | 1.8 | 81% | – | – | CC(=O)Nc1ncc(CN2C[C@H](Oc3cc(C)c(F)cn3)C[C@@H]2C)s1 [Example 1-87, N-(5-(((2S,4R)-4-((5-fluoro-4-methylpyridin-2-yl)oxy)-2-methylpyrrolidin-1-yl)methyl)thiazol-2-yl)acetamide]
< 1 nM | 3 nM | 5.2 | 29% | – | – | [2H]C(c1cnc(NC(C)=O)s1)N1C[C@H](Oc2cc(OC)ncn2)C[C@@H]1C (single isomer, unassigned) [Example 1-158]
< 1 nM | < 1 nM | 19.7 | 66% | – | – | COc1cnc(O[C@@H]2C[C@H](C)N(Cc3sc(NC(C)=O)nc3F)C2)nc1 [Example 1-89, N-(4-fluoro-5-(((2S,4R)-4-((5-methoxypyrimidin-2-yl)oxy)-2-methylpyrrolidin-1-yl)methyl)thiazol-2-yl)acetamide]
< 1 nM | 28 nM | 2.6 | 87% | – | – | CC(=O)Nc1ncc(CN2C[C@H](Oc3cc(OC4CCCC4)ncn3)C[C@@H]2C)s1 [Example 1-138, N-(5-(((2S,4R)-4-((6-(cyclopentyloxy)pyrimidin-4-yl)oxy)-2-methylpyrrolidin-1-yl)methyl)thiazol-2-yl)acetamide]
< 1 nM | 2 nM | 28.6 | 34% | – | – | COc1ccc(O[C@@H]2C[C@H](C)N(Cc3cnc(NC(C)=O)s3)C2)nn1 [Example 1-68, N-(5-(((2S,4R)-4-((6-methoxypyridazin-3-yl)oxy)-2-methylpyrrolidin-1-yl)methyl)thiazol-2-yl)acetamide]
< 1 nM | 2 nM | 4.8 | 31% | – | – | COc1cc(O[C@@H]2C[C@H](C)N(Cc3cnc(NC(C)=O)s3)C2)ncn1 [Example 1-1, N-(5-(((2S,4R)-4-((6-methoxypyrimidin-4-yl)oxy)-2-methylpyrrolidin-1-yl)methyl)thiazol-2-yl)acetamide]
< 1 nM | 1 nM | 53.4 | 70% | – | – | CC(=O)Nc1ncc(CN2C[C@H](Oc3cc(NC4CCC4)ncn3)C[C@@H]2C)s1 [Example 1-134, N-(5-(((2S,4R)-4-((6-(cyclobutylamino)pyrimidin-4-yl)oxy)-2-methylpyrrolidin-1-yl)methyl)thiazol-2-yl)acetamide]
< 1 nM | 3 nM | 1.1 | 73% | – | 1.9 | CC(=O)Nc1ncc(CN2C[C@H](Oc3ccc(F)cn3)C[C@@H]2C)s1 [Example 1-11, N-(5-(((2S,4R)-4-((5-fluoropyridin-2-yl)oxy)-2-methylpyrrolidin-1-yl)methyl)thiazol-2-yl)acetamide]
1.2 nM | < 1 nM | 18.1 | 65% | – | – | CC(=O)Nc1ncc(CN2C[C@H](Oc3ncc(OC(F)F)cn3)C[C@@H]2C)s1 [Example 1-80, N-(5-(((2S,4R)-4-((5-(difluoromethoxy)pyrimidin-2-yl)oxy)-2-methylpyrrolidin-1-yl)methyl)thiazol-2-yl)acetamide]

SMILES | IC50 [1] | IC50 [2] | efflux ratio at 2 h (P-gp (MDR1); [4]) | RLM % Qh (%) [3, 5] | RLM % Qh (%) ([3]; repeated assay, value marked with asterisk (*)) | efflux ratio at 2 h (P-gp (MDR1); [6])
CO[C@H]1C[C@@H](Oc2cc(O[C@@H]3C[C@H](C)N(Cc4cnc(NC(C)=O)s4)C3)ncn2)C1 [Example 1-123, N-(5-(((2S,4R)-4-((6-((1s,3S)-3-methoxycyclobutoxy)pyrimidin-4-yl)oxy)-2-methylpyrrolidin-1-yl)methyl)thiazol-2-yl)acetamide] | 1.1 nM | 5 nM | 5.7 | 55% | – | –

Source: patent US20240308995A1, “O-GLYCOPROTEIN-2-ACETAMIDO-2-DEOXY-3-D-GLUCOPYRANOSIDASE INHIBITORS” (BIOGEN MA INC., priority 2018, published 2024)
